The values below come from patent US6395780B1, “Cleavage system inhibitors as potential antipsychotics” (Merck Patent GmbH, priority 1999, dated 2002).

Data set [1] has as its system apomorphine-induced climbing behavior. Kind of data set: apomorphine-induced climbing test in mice. It is filed as in vivo. Conditions: for inhibition of apomorphine-induced climbing behavior: apomorphine 1.25 mg/kg subcutaneously. The source says: Although the complex interaction of glycine with the neurotransmitter dopamine is not yet fully understood, the counterbalancing effects (symmetric bilateral changes) of glycine and dopamine, at least in part via GABAergic and cholinergic interneurons, in the central nervous system are well known for long ([…] et al., 1978; Giorguieff et al., 1979; […] et al., 1979; Schmidt and […] et al., 1998). Dopamine antagonists are the classic antischizophrenic drugs, and conventional animal models to test for antischizophrenic drugs with a dopaminergic mechanism of action use the induction of stereotyped behaviours such as climbing behavior in mice by the application of dopamine-agonistic drugs such as apomorphine (Protais et al., 1976; Puech et al., 1978). […] Therefore the model compound cysteamine at the doses indicated before are investigated in the climbing test in mice, too.

Data set [2] concerns PCP-induced disruption of PPI. Kind of data set: PCP-induced disruption of prepulse inhibition (PPI). It is filed as in vivo, rats. An excerpt: For the PCP-induced disruption of PPI we use a commercially available standard equipment (Coulbourn Instruments, USA) consisting of a sound attenuated test box equipped with a startle response measuring unit connected to a microcomputer; a white noise generator applies a constant level of back ground noise during the experiment. After a habituation period, a series of 70 combinations of prepulses (no prepulse or […] above back ground noise) and pulses (90 to 126 dB) is randomly applied to the rats. […] In control animals, presentation of the prepulse inhibits the startle response elicited by the pulse alone. PCP at the indicated doses induces a disruption of PPI by a maximum of about 70% compared to control animals. The doses indicated above are used for valproate and cysteamine, administered before the PCP challenge.

Data set [3] deals with glycine levels. To be noted: i.p. 250 mg/kg in 8 day old rats (Iwama 1997); cited from earlier work.
Data set [4] concerns PCP-induced hyperlocomotion. Nature of the data set: PCP-induced hyperlocomotion model. It is filed as in vivo. The procedure: For the PCP-induced hyperlocomotion model we use a test apparatus consisting of a clear plexiglass box (45 cm×45 cm) equipped with two series of equally spaced infrared beam lights controlling X-Y axes and connected to a microcomputer. Measured automatically are the distance (way) traveled [m], and the time spent with locomotion or resting [sec] in intervals of 30 min over a total of 90 minutes following PCP administration. […] PCP at the indicated dose induces excessive locomotor behavior with an increase of about 200-250% measured by either locomotion distance or time compared to control animals.

Data set [5] relates to hyperlocomotion induced by PCP or related drugs. To be noted: PCP or related drugs as challenge stimulants, rodents; cited from earlier work.
Data set [6] has as its system negative symptoms in schizophrenic patients. Conditions: cited from earlier work.
The target of data set [7] is T1, Glycine Cleavage System (GCS) (Homo sapiens, UniProt P09622+P23378+P23434+P48728). Conditions: brain mitochondria; read-out: Ki for GCS inhibition; cited from earlier work.
Data set [8] concerns the target T1, Glycine Cleavage System (GCS). Conditions: liver mitochondria; read-out: Ki for GCS inhibition; cited from earlier work.
Data set [9] shares this target. To be noted: Benavides 1983; cited from earlier work.
Data set [10] relates to negative symptoms. Conditions: cited from earlier work.

Entries after “also recorded” stand apart in the source; their conditions may differ. Like-named read-outs stand apart in the source and are kept apart here.

T1 sequence (P23378 36-1020): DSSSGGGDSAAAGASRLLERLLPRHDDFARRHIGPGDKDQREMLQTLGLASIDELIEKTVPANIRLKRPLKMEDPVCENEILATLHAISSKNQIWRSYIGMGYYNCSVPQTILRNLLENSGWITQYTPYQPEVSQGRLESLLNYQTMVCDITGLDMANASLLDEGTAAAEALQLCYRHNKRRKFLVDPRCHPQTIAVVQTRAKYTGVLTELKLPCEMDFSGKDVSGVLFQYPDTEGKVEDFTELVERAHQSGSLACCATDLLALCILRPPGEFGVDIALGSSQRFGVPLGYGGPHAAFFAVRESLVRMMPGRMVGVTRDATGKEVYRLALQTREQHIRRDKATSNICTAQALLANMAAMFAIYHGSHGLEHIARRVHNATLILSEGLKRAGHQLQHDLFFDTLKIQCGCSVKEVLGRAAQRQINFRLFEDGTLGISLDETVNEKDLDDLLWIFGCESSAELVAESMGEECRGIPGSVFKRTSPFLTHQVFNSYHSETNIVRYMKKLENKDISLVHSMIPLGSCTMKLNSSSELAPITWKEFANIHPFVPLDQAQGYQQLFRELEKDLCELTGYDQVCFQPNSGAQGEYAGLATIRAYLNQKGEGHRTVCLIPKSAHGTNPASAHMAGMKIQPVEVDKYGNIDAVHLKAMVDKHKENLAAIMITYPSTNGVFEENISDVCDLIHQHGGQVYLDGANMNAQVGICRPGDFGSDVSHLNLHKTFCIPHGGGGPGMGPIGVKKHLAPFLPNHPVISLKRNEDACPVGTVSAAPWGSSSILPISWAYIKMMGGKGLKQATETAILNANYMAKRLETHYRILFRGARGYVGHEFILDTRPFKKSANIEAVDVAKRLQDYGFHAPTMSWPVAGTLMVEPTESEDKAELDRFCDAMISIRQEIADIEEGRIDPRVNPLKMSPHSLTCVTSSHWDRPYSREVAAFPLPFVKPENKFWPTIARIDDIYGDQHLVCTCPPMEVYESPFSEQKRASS
T1 sequence (P48728 29-403): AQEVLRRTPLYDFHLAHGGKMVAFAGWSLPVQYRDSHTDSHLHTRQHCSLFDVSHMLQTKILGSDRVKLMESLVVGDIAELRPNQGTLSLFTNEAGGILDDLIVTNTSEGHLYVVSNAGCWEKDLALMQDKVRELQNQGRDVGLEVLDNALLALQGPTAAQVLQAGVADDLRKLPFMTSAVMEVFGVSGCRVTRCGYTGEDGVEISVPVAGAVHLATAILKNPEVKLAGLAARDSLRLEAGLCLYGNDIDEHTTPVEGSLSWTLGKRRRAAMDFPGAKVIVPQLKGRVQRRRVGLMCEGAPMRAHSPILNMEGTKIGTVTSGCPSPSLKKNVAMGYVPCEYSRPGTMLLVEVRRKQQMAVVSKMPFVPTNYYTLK
T1 sequence (P23434 49-173): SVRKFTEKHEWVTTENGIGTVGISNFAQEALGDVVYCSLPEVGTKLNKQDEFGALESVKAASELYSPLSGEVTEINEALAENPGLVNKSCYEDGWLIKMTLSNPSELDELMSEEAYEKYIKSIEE
T1 sequence (P09622 36-509): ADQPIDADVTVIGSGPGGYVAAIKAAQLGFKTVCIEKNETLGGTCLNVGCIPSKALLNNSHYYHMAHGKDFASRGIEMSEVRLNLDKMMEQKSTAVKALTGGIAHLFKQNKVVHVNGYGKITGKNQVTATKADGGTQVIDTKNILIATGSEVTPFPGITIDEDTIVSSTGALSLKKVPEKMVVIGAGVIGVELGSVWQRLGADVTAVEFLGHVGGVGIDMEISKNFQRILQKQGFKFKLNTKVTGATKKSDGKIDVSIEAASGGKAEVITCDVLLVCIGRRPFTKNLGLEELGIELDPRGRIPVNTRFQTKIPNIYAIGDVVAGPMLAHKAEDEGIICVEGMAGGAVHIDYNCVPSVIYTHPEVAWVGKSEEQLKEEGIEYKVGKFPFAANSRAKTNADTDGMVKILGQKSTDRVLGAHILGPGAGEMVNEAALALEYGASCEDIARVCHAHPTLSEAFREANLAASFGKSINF

In the case of `NCCS` [Cysteamine], the ED50 in data set [1] (Mus musculus, given prior to the apomorphine challenge, read-out: ED50 (dose which inhibits apomorphine-induced climbing by 50%)) amounted to 500 mg/kg. Moreover, the “effect on PCP-induced disruption of PPI” value in data set [2] (100 to 500 mg/kg parenterally before PCP 1-5 mg/kg s.c., different prepulse/pulse combinations) is given as “reverse PCP-induced disruption of PPI”. Also, the “glycine in the cortex, % of control animals” value in [3] was 360%. For the same compound, the “effect on PCP-induced hyperlocomotion” value in data set [4] (100 to 500 mg/kg parenterally before PCP 5 mg/kg i.p., distance traveled and locomotion time over 90 min) is “reduction of PCP-induced hyperlocomotion; also recorded: reduce PCP-induced hyperlocomotion”.
In the case of `N[C@@H]1CONC1=O` [D-cycloserine], the “efficacy in the hyperlocomotion model” value in data set [5] is listed as “repeatedly demonstrated”. The “inhibition of apomorphine-induced climbing behavior” value in data set [1] is given as “inhibited”. The negative symptoms entry in [6] (50 mg/d along with effective dose of antipsychotics, double blind, placebo-controlled (Goff 1999)) was “improvement in negative symptoms”. In data set [6] (50 mg/d, trial assessing 15 to 250 mg/d (Goff 1995)), the “negative symptoms in schizophrenic patients” value was “reduced negative symptoms”.
Regarding `CCCCCCCCCCCCNC(=O)CN` [GDA, glycyldodecylamide], the “efficacy in the hyperlocomotion model” value in data set [5] was “repeatedly demonstrated”. The “inhibition of apomorphine-induced climbing behavior” value in data set [1] is on record as “inhibited”.
With `c1ccc(C2(N3CCCCC3)CCCCC2)cc1` [PCP, phencyclidine], in data set [2] (PCP 1-5 mg/kg subcutaneously), the “disruption of PPI compared to control animals (maximum)” value is “about 70%”. Also, the “increase of locomotor behavior (distance or time) compared to control animals” value in data set [4] (PCP 5 mg/kg intraperitoneally) is recorded as 200-250%.
As for `N[C@@H]1CCN(O)C1=O` [R-(+)-HA-966, R-(+)-3-amino-1-hydroxypyrrolid-2-one], in [5], the “efficacy in the hyperlocomotion model” value was “repeatedly demonstrated”.
`CCCC(CCC)C(=O)O` [Valproate]: the Ki in data set [7] is 2000 µM; in data set [8], 590 µM.
Regarding `N#CCN` [aminoacetonitrile], the “GCS inhibition (in words)” value in data set [9] is reported as “weak inhibitors”.
For the compound `NCC(=O)O` [glycine], the “efficacy in the hyperlocomotion model” value in data set [5] was “repeatedly demonstrated”. In addition, in [10] (0.4 g/kg and 0.8 g/kg glycine orally along with usual antipsychotic medication), the side effects result is listed as “No changes”. Moreover, the entries for the “amelioration of negative symptoms” value in [10] (0.4 g/kg glycine orally along with usual antipsychotic medication) and in data set [10] (0.8 g/kg glycine orally along with usual antipsychotic medication) were 15% and 30%, respectively.
For `C#CCN` [propargylamine], in data set [9], the “GCS inhibition (in words)” value is given as “weak inhibitors”.
